Assay results as given in patent US6350913B1, “3-alkoxybenzylamine derivatives and their use as medicines for treating schizophrenia” (Pierre Fabre Medicament, priority 1998, dated 2002).
Counter-ions that a name gives are not always drawn.

How the values were obtained:
[1] = Cataleptogenic power (propensity to induce extrapyramidal side effects); conditions: rat, in vivo, ip; rats, i.p. administration; read-out: Catalepsy ED50
[2] = tested on: behavioral patterns induced by methylphenidate; assay: Inhibition of behavioral patterns induced by methylphenidate (in vivo antidopaminergic activity); conditions: Rattus norvegicus, ip, read-out: Normalization ED50
D2 receptors = D2 receptors (Homo sapiens, UniProt P14416); assay: Affinity for D2-type receptors by displacement of (3H) YM-09151-2; format: binding; conditions: mean of at least 3 experiments, read-out: D2 pKi (converted)
Method: 1- Measurement of the affinity of the compounds of the invention for the D2 receptors. The affinity of the compounds of the invention for the D2-type receptors was determined by measuring the displacement of (^3H) YM-09151-2 (NET-1004 70-87 Ci/mmol), according to the method described in Naunyn-Schimiedeberg's Arch. Pharmacol. Methods, 1985, 329, 333. The pKi values (-log Ki) are given in the form of a mean±SEM of at least 3 experiments.

Sequence of D2 receptors (P14416 whole entry): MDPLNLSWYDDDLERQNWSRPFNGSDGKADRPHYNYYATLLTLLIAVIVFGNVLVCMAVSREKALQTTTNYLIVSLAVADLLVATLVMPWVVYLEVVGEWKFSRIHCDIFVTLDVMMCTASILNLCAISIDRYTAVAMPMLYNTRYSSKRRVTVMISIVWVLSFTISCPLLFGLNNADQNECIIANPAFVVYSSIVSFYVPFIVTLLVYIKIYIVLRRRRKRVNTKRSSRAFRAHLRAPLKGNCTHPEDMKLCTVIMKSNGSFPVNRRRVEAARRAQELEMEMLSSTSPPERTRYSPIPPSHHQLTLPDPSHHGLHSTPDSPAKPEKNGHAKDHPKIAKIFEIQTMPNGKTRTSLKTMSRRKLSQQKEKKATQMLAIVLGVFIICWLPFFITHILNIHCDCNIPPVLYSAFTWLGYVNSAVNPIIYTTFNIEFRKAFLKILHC

Row | SMILES | melting point | ED50 [1] | ED50 [2] | Ki (D2 receptors)
1 | CC(C)Oc1ccccc1OCCNCc1cc(OC2CCCC2)ccc1F (as salt: oxalate) [Compound 1.12] | 159 °C |  |  | 
2 | CC(C)Oc1ccccc1OCCNCc1cccc(OC2CC3C=CC2C3)c1 (stereo not drawn) (as salt: oxalate) [Compound 1.4] | 177 °C |  |  | 
3 | CC(C)Oc1ccccc1OCCNCc1cccc(OC2CC3C=CC2C3)c1 (stereo not drawn) [Compound 1.4] |  | > 40 mg/kg | 5 mg/kg | 2.75 nM
4 | CC(C)Oc1ccccc1OCCNCc1cc(OC2CCCC2)ccc1F [Compound 1.12] |  | > 40 mg/kg | 1.25 mg/kg | 0.741 nM
5 | Cc1nc2n(c(=O)c1CCN1CCC(c3noc4cc(F)ccc34)CC1)CCCC2 [Risperidone, reference compound] |  |  | 2.9 mg/kg | 
